Reference: ChEMBL document CHEMBL3826929, “Discovery and Preclinical Evaluation of BMS-711939, an Oxybenzylglycine Based PPARα Selective Agonist” (ACS Med Chem Lett, 2016)

Legend:
Syrian golden hamster [1] = experiment: Decrease in liver triglyceride level in high fat-diet fed syrian golden hamster model of dyslipidemia at 10 mg/kg administered qd through oral gavage measured after 21 days by FPLC analysis relative to control; format: functional, Mesocricetus auratus; parameters: scale not given: the % may be the effect or the level left
Syrian golden hamster [2] = experiment: Decrease in liver triglyceride level in high fat-diet fed syrian golden hamster model of dyslipidemia at 1 mg/kg administered qd through oral gavage measured after 21 days by FPLC analysis relative to control; format: functional, Mesocricetus auratus; parameters: scale not given: the % may be the effect or the level left
[3] = biological target: T1, Peroxisome proliferator-activated receptor alpha (Homo sapiens, UniProt Q07869); experiment: Agonist activity at full length human PPAR-alpha transfected in human HepG2 cells by luciferase reporter gene assay; format: cell-based
T1 sequence (Q07869 whole entry): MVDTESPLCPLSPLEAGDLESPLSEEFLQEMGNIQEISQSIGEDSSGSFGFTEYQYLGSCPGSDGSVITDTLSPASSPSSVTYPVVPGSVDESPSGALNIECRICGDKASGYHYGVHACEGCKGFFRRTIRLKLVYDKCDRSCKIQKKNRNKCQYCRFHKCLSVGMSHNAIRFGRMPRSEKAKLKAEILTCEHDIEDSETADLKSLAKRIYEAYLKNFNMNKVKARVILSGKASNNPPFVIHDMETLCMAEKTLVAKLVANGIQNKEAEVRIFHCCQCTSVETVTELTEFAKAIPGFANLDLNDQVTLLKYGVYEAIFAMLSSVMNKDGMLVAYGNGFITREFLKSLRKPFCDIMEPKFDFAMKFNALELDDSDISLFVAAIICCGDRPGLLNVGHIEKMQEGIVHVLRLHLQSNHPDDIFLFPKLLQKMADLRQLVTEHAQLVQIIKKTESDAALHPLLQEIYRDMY

Syrian golden hamster [4] = experiment: Decrease in liver cholesterol level in high fat-diet fed syrian golden hamster model of dyslipidemia at 3 mg/kg administered qd through oral gavage measured after 21 days by FPLC analysis relative to control; format: functional, Mesocricetus auratus; parameters: scale not given: the % may be the effect or the level left
Syrian golden hamster [5] = experiment: Decrease in plasma LDL cholesterol level in high fat-diet fed syrian golden hamster model of dyslipidemia administered qd through oral gavage measured after 21 days by FPLC analysis relative to control; format: functional, organism-based; settings: Mesocricetus auratus
Syrian golden hamster [6] = experiment: Decrease in plasma LDL cholesterol level in high fat-diet fed syrian golden hamster model of dyslipidemia at 3 mg/kg administered qd through oral gavage measured after 21 days by FPLC analysis relative to control; format: functional, Mesocricetus auratus; parameters: scale not given: the % may be the effect or the level left
Syrian golden hamster [7] = experiment: Decrease in plasma triglyceride level in high fat-diet fed syrian golden hamster model of dyslipidemia at 10 mg/kg administered qd through oral gavage measured after 21 days by FPLC analysis relative to control; format: functional, Mesocricetus auratus; parameters: scale not given: the % may be the effect or the level left
Syrian golden hamster [8] = experiment: Decrease in plasma triglyceride level in high fat-diet fed syrian golden hamster model of dyslipidemia at 3 mg/kg administered qd through oral gavage measured after 21 days by FPLC analysis relative to control; format: functional, Mesocricetus auratus; parameters: scale not given: the % may be the effect or the level left
Syrian golden hamster [9] = experiment: Decrease in plasma triglyceride level in high fat-diet fed syrian golden hamster model of dyslipidemia at 1 mg/kg administered qd through oral gavage measured after 21 days by FPLC analysis relative to control; format: functional, Mesocricetus auratus; parameters: scale not given: the % may be the effect or the level left
[10] = Tmax in Sprague-Dawley rat at 8 mg/kg, po; format: ADME, organism-based; settings: in vivo
[11] = Cmax in Sprague-Dawley rat at 8 mg/kg, po; format: ADME, organism-based; parameters: dose 8 mg/kg, route oral; settings: in vivo
[12] = AUC (0 to 8 hrs) in Balb/c mouse at 5 mg/kg, iv; format: ADME, organism-based; parameters: dose 5 mg/kg, time < 8 hr, route intravenous; settings: in vivo
[13] = AUC (0 to 8 hrs) in Sprague-Dawley rat at 4 mg/kg, iv; format: ADME, organism-based; parameters: time < 8 hr, dose 4 mg/kg, route intravenous; settings: in vivo
[14] = AUC (0 to 8 hrs) in Sprague-Dawley rat at 8 mg/kg, po; format: ADME, organism-based; parameters: time < 8 hr, dose 8 mg/kg, route oral; settings: in vivo
[15] = AUC (0 to 8 hrs) in cynomolgus monkey at 1 mg/kg, iv; format: ADME, organism-based, Macaca fascicularis; parameters: time < 8 hr, dose 1 mg/kg, route intravenous; settings: in vivo
[16] = AUC (0 to 8 hrs) in cynomolgus monkey at 2 mg/kg, po; format: ADME, organism-based, Macaca fascicularis; parameters: time < 8 hr, dose 2 mg/kg, route oral; settings: in vivo
[17] = Plasma clearance in Sprague-Dawley rat at 4 mg/kg, iv; format: ADME, organism-based
[18] = Plasma clearance in cynomolgus monkey at 1 mg/kg, iv; format: ADME, organism-based, Macaca fascicularis
[19] = Volume of distribution at steady state in Balb/c mouse at 5 mg/kg, iv; format: ADME, organism-based; settings: in vivo, read-out: Vdss
[20] = Volume of distribution at steady state in Sprague-Dawley rat at 4 mg/kg, iv; format: ADME, organism-based; settings: in vivo, read-out: Vdss
[21] = Volume of distribution at steady state in cynomolgus monkey at 1 mg/kg, iv; format: ADME, organism-based, Macaca fascicularis; settings: in vivo, read-out: Vdss
[22] = Half life in cynomolgus monkey at 1 mg/kg, iv; format: ADME, organism-based, Macaca fascicularis; settings: in vivo
[23] = Oral bioavailability in Balb/c mouse at 10 mg/kg; format: ADME, organism-based; settings: in vivo
[24] = Oral bioavailability in cynomolgus monkey at 2 mg/kg; format: ADME, organism-based, Macaca fascicularis; settings: in vivo
Liver X receptor = Liver X receptor (Homo sapiens, UniProt Q13133+P55055); experiment: Agonist activity at human LXR by transactivation assay; format: protein assay
Glucocorticoid receptor = Glucocorticoid receptor (Homo sapiens, UniProt P04150); experiment: Agonist activity at human GR by transactivation assay
Retinoid X receptor = Retinoid X receptor (Homo sapiens, UniProt P28702+P48443+P19793); experiment: Agonist activity at human RXR by transactivation assay; format: protein assay
[25] = biological target: Liver X receptor (Homo sapiens) (UniProt Q13133+P55055); experiment: Agonist activity at human LXR by transactivation assay relative to standard compound; format: protein assay
[26] = Protein binding in cynomolgus monkey plasma; format: ADME, cell-free, Macaca fascicularis; settings: read-out: PPB
Cytochrome P450 3A4 [27] = biological target: T2, Cytochrome P450 3A4 (Homo sapiens, UniProt P08684); experiment: Inhibition of CYP3A4 (unknown origin); format: ADME
Mus musculus [28] = experiment: Increase in ApoA1 level in transgenic mouse expressing human ApoA1 at 50 mg/kg administered qd through oral gavage measured after 10 days relative to vehicle-treated control; format: functional
Mus musculus [29] = experiment: Increase in ApoA1 level in transgenic mouse expressing human ApoA1 at 10 mg/kg administered qd through oral gavage measured after 10 days relative to vehicle-treated control; format: functional
[30] = biological target: Nuclear receptor subfamily 1 group I member 2 (Homo sapiens, UniProt O75469); experiment: Activation of PXR (unknown origin); format: ADME
Cytochrome P450 2C19 = Cytochrome P450 2C19 (Homo sapiens, UniProt P33261); experiment: Inhibition of CYP2C19 in human TC5 cells; format: ADME, cell-based
Cytochrome P450 3A4 [31] = biological target: T2, Cytochrome P450 3A4; experiment: Inhibition of CYP3A4 in human TC5 cells; format: ADME, cell-based
hERG (KCNH2) = hERG (KCNH2) (Homo sapiens, UniProt Q12809); experiment: Inhibition of human ERG at 30 uM by patch-clamp method
Homo sapiens [32] = organism: Homo sapiens; experiment: Inhibition of sodium channel (unknown origin) assessed as channel block at 10 uM and 1 Hz by electrophysiology method
Homo sapiens [33] = organism: Homo sapiens; experiment: Inhibition of sodium channel (unknown origin) assessed as channel block at 10 uM and 4 Hz by electrophysiological method
CHO = experiment: Clastogenecity in CHO cells; format: ADME, cell-based, Cricetulus griseus; settings: chinese hamster
Rhesus monkey [34] = experiment: Cardiovascular toxicity in monkey assessed as change in hemodynamic effect up to 20 mg/kg administered as single dose by telemetry test; format: organism-based, Macaca mulatta; settings: in vivo
Rhesus monkey [35] = experiment: Cardiovascular toxicity in monkey assessed as change in electrocardiographic effect up to 20 mg/kg administered as single dose by telemetry test; format: organism-based, Macaca mulatta; settings: in vivo
Mus musculus [36] = experiment: Increase in HDL cholesterol level in transgenic mouse expressing human ApoA1 compound administered qd through oral gavage measured after 10 days; format: functional, organism-based

T2 sequence (P08684 whole entry): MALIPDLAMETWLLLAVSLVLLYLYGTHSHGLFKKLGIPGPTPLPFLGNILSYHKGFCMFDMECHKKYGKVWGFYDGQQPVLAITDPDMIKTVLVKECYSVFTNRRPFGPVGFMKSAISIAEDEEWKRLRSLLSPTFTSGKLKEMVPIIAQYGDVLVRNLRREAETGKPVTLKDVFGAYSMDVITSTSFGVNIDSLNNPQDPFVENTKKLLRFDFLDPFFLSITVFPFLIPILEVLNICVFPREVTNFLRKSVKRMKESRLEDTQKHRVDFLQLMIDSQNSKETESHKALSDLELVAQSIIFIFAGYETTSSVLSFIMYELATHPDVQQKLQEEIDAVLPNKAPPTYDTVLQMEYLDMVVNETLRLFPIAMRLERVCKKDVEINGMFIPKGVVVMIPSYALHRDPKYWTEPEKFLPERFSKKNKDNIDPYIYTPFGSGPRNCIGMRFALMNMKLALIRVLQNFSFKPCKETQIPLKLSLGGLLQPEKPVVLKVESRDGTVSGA
Sequence of hERG (KCNH2) (Q12809 whole entry): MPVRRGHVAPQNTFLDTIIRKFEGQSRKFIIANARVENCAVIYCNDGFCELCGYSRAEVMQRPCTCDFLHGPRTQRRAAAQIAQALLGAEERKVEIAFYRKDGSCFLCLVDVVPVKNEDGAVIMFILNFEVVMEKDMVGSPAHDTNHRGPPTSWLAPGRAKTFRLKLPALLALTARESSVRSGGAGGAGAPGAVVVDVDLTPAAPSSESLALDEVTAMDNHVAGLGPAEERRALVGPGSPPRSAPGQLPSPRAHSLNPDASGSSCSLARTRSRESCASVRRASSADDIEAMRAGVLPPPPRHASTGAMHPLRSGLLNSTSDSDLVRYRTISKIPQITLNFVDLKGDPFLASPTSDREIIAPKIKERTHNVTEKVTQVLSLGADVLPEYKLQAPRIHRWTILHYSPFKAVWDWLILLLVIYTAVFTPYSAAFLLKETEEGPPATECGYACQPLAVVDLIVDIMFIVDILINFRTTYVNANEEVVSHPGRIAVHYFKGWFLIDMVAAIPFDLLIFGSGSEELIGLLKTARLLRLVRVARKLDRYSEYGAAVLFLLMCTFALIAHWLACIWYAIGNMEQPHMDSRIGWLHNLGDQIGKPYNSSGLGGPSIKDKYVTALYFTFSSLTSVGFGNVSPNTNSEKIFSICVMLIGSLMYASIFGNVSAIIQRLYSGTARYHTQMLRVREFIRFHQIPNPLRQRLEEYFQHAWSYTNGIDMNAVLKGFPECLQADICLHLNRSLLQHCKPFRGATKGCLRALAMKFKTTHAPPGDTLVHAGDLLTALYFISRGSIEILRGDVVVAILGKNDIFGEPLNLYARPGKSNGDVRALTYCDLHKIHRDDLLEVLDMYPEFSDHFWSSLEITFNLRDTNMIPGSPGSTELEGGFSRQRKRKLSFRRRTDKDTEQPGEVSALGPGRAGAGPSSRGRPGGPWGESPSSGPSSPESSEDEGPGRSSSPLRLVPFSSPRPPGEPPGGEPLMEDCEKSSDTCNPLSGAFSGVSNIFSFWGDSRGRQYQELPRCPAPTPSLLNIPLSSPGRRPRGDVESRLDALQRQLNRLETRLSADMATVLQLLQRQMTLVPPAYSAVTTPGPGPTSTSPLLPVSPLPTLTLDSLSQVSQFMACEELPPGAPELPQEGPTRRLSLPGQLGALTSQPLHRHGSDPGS
Sequence of Glucocorticoid receptor (P04150 whole entry): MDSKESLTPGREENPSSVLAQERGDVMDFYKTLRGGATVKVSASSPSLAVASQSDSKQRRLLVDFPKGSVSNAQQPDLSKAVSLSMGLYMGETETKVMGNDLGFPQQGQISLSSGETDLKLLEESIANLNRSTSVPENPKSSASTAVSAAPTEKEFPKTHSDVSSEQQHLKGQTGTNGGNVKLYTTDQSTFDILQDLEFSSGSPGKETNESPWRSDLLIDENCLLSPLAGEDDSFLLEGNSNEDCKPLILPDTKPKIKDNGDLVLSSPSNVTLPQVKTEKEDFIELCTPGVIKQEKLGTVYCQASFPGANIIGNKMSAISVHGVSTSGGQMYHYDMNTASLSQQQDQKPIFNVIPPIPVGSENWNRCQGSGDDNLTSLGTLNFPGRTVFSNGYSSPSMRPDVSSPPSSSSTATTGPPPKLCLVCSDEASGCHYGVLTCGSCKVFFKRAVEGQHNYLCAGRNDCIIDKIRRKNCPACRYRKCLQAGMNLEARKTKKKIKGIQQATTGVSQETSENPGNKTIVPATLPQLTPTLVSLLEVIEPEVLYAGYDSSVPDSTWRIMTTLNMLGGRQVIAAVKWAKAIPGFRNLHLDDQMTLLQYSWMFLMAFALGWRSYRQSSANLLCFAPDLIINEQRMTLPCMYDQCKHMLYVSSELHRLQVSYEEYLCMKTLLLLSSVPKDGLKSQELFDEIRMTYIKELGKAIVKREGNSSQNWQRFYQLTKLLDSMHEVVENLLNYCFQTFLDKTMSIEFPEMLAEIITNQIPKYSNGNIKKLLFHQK
Sequence of Nuclear receptor subfamily 1 group I member 2 (O75469 whole entry): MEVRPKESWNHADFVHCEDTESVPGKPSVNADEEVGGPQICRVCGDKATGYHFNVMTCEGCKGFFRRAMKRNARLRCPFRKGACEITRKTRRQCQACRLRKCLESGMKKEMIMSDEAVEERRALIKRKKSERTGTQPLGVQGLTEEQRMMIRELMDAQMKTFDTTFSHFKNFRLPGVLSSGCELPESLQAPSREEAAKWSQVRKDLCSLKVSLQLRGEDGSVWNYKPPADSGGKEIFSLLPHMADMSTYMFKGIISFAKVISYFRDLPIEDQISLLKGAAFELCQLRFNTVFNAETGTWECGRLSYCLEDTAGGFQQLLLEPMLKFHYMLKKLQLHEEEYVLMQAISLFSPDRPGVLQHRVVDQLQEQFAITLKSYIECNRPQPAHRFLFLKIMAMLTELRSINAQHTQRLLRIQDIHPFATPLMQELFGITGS
Sequence of Cytochrome P450 2C19 (P33261 whole entry): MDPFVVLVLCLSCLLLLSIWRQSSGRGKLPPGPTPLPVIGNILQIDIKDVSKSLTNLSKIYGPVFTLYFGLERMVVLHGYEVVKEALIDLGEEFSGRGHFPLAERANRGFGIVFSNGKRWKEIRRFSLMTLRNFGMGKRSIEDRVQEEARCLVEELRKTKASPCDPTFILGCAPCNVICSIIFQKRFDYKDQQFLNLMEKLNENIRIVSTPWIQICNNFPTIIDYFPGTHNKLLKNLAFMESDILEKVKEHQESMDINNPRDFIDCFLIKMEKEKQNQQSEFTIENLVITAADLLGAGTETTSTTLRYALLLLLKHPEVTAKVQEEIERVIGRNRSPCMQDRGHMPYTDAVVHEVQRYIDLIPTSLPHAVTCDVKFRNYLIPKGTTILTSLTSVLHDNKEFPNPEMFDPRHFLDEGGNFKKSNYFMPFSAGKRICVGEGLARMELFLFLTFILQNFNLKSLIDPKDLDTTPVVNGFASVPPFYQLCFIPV

COC(=O)N(CC(=O)O)Cc1cc(OCc2nc(-c3ccc(Cl)cc3)oc2C)ccc1F
Activity (Syrian golden hamster [1]): 48% | Activity (Syrian golden hamster [2]): 18.7% | EC50 [3]: 0.005 µM | Activity (Syrian golden hamster [4]): 56.8% | Activity (Syrian golden hamster [5]): Dose-dependent effect | Activity (Syrian golden hamster [6]): 61% | Activity (Syrian golden hamster [7]): 85% | Activity (Syrian golden hamster [8]): 74% | Activity (Syrian golden hamster [9]): 50% | Tmax [10]: 0.3 h | Cmax [11]: 14.9 µM | AUC(0-t) at 8 h [12]: 13 µM·h | AUC(0-t) at 8 h [13]: 9.4 µM·h | AUC(0-t) at 8 h [14]: 32 µM·h | AUC(0-t) at 8 h [15]: 7.5 µM·h | AUC(0-t) at 8 h [16]: 8.5 µM·h | clearance [17]: 15.3 mL/min/kg | clearance [18]: 5.9 mL/min/kg | Vd [19]: 0.6 L/kg | Vd [20]: 2.2 L/kg | Vd [21]: 3.9 L/kg | half-life [22]: 26.3 h | bioavailability [23]: 66% | bioavailability [24]: 65% | EC50 (Liver X receptor): > 25 µM | EC50 (Glucocorticoid receptor): > 25 µM | EC50 (Retinoid X receptor): > 25 µM | Efficacy [25]: < 15% | fraction unbound [26]: 0.01 | IC50 (Cytochrome P450 3A4 [27]): > 40 µM | Activity (Mus musculus [28]): 747% | Activity (Mus musculus [29]): 400% | EC60 [30]: > 50 µM | IC50 (Cytochrome P450 2C19): > 150 µM | IC50 (Cytochrome P450 3A4 [31]): > 150 µM | inhibition at 30 µM (hERG (KCNH2)): 4% | inhibition (Homo sapiens [32]): 12% | inhibition (Homo sapiens [33]): 14% | Activity (CHO): Non-toxic | Activity (Rhesus monkey [34]): Non-toxic | Activity (Rhesus monkey [35]): Non-toxic | Activity (Mus musculus [36]): Dose-dependent effect
